Test results as given in paper PMC4825926, “FleA Expression in Aspergillus fumigatus Is Recognized by Fucosylated Structures on Mucins and Macrophages to Prevent Lung Infection” (PLoS Pathogens, 2016).
Read-outs that look alike come from different tables or passages of the source.

Tests used:
[1] = target: T1, FleA (AFL, Aspergillus fumigatus lectin) (Aspergillus fumigatus, UniProt Q4WW81); assay: competition plate assay: biotinylated FleA binding to immobilised human airway mucin
T1 construct: about 34 kDa; no canonical signal peptide
T1 sequence (Q4WW81 whole entry): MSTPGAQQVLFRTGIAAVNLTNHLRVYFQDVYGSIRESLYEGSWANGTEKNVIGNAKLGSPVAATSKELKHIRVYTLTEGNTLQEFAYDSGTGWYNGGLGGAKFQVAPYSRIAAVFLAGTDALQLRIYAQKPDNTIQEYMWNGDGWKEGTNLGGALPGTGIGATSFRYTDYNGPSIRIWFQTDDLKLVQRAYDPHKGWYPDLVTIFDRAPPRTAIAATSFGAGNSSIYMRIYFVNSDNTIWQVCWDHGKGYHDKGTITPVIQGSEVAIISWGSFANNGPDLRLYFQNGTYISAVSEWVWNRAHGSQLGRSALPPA

PA-IIL (PAIIL) = target: T2, PA-IIL (PAIIL) (Pseudomonas aeruginosa, UniProt Q9HYN5); assay: competition assay: PA-IIL binding to human airway mucin
T2 construct: gene lecB
T2 sequence (Q9HYN5 entry or part of it): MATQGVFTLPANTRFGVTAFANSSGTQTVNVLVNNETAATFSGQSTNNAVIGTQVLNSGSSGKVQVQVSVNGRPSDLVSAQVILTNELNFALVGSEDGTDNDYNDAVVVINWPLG

[2] = target: T1, FleA (AFL, Aspergillus fumigatus lectin); assay: competition plate assay: biotinylated FleA binding to immobilised human airway mucin; conditions: 10 mM CaCl2, TBS-Tween; 100 mM L-galactose

Row | Compound | IC50 [1] [µM] | also measured
1 | CCC/C=C/CO[C@@H]1O[C@@H](C)[C@@H](O)[C@@H](O)[C@@H]1O [(2E)-hexenyl α-L-fucopyranoside] | 0.012 | IC50 (PA-IIL (PAIIL)): 1.6 µM
2 | CCCCCCO[C@@H]1O[C@@H](C)[C@@H](O)[C@@H](O)[C@@H]1O [hexyl α-L-fucopyranoside] | 361 | 
3 | OC[C@@H]1OC(O)[C@@H](O)[C@H](O)[C@@H]1O (stereo partly drawn) [L-galactose] |  | inhibition at 100 mM [2]: No inhibition was observed with galactose (Fig 1A)
4 | CO[C@@H]1O[C@@H](C)[C@@H](O)[C@@H](O)[C@@H]1O [methyl α-L-fucopyranoside] | 450 | 
5 | CCCCC/C=C/CO[C@@H]1O[C@@H](C)[C@@H](O)[C@@H](O)[C@@H]1O [(2E)-octenyl α-L-fucopyranoside] | 2100 | 
6 | C=CCO[C@@H]1O[C@@H](C)[C@@H](O)[C@@H](O)[C@@H]1O [allyl α-L-fucopyranoside] | 264 | 
7 | CCC/C=C/CO[C@H]1O[C@H](CO)[C@H](O)[C@H](O)[C@H]1O [(2E)-hexenyl α-D-galactopyranoside] | 15300 | 
8 | C[C@@H]1OC(O)[C@@H](O)[C@H](O)[C@@H]1O (stereo partly drawn) [L-fucose] |  | IC50 ([1]; 10 mM CaCl2, TBS-Tween, inhibition of FleA-mucin binding): 801 µM
